Here are results for six compounds from patent US20250197425A1, “2,6,9-TRISUBSTITUTED PURINES” (ASTRAZENECA AB, priority 2022, published 2025).

A word on the IC50: it is the concentration that inhibits the measured activity by half. For orientation: solubility means the concentration that dissolves in the medium under given conditions. A higher solubility goes with a readily soluble substance.

Data set [1] deals with NPM phosphorylation (Thr199, CDK2-cyclin E complex). Put plainly: NPM phosphorylation imaging assay in MCF-7 cells. The data set is classed as cell-based. The conditions noted are these: Homo sapiens, 4N DNA cells. The procedure: Compounds were tested to assess the effects of CDK2 inhibition in a cellular context. […] During the cell cycle, the CDK2-cyclin E complex phosphorylates NPM at Thr199 which is a prerequisite step for initiation of centrosome duplication.
The cells were fixed by addition of 40 μL/well of 8% paraformaldehyde and incubated at room temperature for 10 minutes. The plates were washed three times with 50 μL/well PBS using a Biotek EL406 plate washer and then permeabilized for 10 minutes at room temperature in 0.3% Triton X100 in PBS. After washing as before, the plates were blocked using 30 μL/well of 2% BSA (w/v) in PBS-T for at least 30 minutes at room temperature. […] Cells containing 4N DNA were selected using the Hoechst staining. Phospho-NPM levels were normalized to controls and the IC50 values of test compounds determined using Genedata Screener software.

A further data set addresses CDK2:CCNE1 (Homo sapiens (Human), UniProt P24941). As to the kind of experiment: NanoBRET assay in MCF-7 cells, CDK2. The data set is classed as cell-based. The note with it: transfected MCF-7 cells, 2 hours, n = 1 or average. The procedure: Compounds were tested in breast cancer cell line MCF-7 to assess inhibition of CDK1, CDK2, and CDK4 activity. […] The next day media were evacuated from the wells using the Bluewasher centrifugal plate washer (Bluecatbio) and 10 μL/well phenol red free OptiMEM was then added using a Multidrop Combi. […] Immediately after compound addition, a Tecan HP300 dispensor was used to dispense the relevant NanoBRET™ tracer to the CDK1 wells (12.5 nl, 400 μM, NanoBRET™ TE Tracer K-9), the CDK2 wells (12.5 nl, 200 μM, NanoBRET™ TE Tracer K-9), and the CDK4 wells (8 nl, 100 μM, NanoBRET™ TE Tracer K-7) and the plates were incubated for 2 hours at 37° C. and 5% CO2. […] The plates were incubated in subdued lighting for 10 minutes and then read on a Pherastar FS plate reader (BMG Technologies) using a NanoBRET™ filter module (460±80 nm/610 nm-LP). The ratio values were normalized to controls and the IC50 values of test compounds determined using Genedata Screener software.
(Bioluminescence resonance energy transfer reports proximity on the nanometre scale.)

The nature of data set [2]: CLint assessment in human liver microsomes (HLM). The conditions noted are these: 1 μM. The data set is classed as in vitro ADME. The procedure: After a preincubation with NADPH for 8 minutes, reactions were initiated through the addition of the test compound (final volume 250 μl) and incubated at 37° C. in a water bath for 30 minutes. […] Samples were shaken at 800 rpm for 2 minutes and centrifuged at 4000 rpm for 20 minutes at 4° C. to pellet precipitated protein. The supernatant fraction was diluted 1:5 with deionized water, shaken at 1000 rpm for 2 minutes, and further diluted 1:1 with deionized water. Samples were analyzed by LC-MS/MS. The t1/2 and the CLint of the compounds incubated in the LM, HLM, and HμREL assays as described above were calculated according to the following equations: […] where V (μl/×10^6 cells or mg protein) is the incubation volume (μl) divided by the number of cells (×10^6) or microsomal protein content (mg) in the incubation.
A general note: Liver microsomes are a subcellular fraction often used to study metabolism.

The subject of a further data set is MCF-7 cells. As to the kind of experiment: Cellular proliferation EdU assay, MCF-7. The note with it: Homo sapiens, MCF7, 48 h, EdU assay, two days; read-out: MCF-7 IC50. It counts as cell-based. The procedure:
(§1) Compounds were tested to assess inhibition of cellular proliferation in the breast cancer cell line MCF-7 and the CCNE1-amplified ovarian cell line OVCAR3.
(§2) MCF-7 and OVCAR3 cells in RPMI supplemented with 10% Fetal bovine serum were seeded into 384-well plates (Greiner, Kremsmunster, Austria; 781091), 30 μL/well, using a WellMate. The MCF7 and OVCAR3 cells were seeded at 800 and 1200 cells/well, respectively. Test compounds were added to the wells using an Echo 555 liquid handler and the plates were placed in incubator maintained at 37° C. and 5% CO2 and incubated for two days. On Day 2, an EdU assay was performed following the manufacturer's protocol (Thermo Fisher, C10351). The cells were read on an Acumen eX3 instrument. The IC50 values of test compounds were determined in Genedata by assessing the ratio of signal intensity at 488 nm to the area of signal at 405 nm.

Data set [3] deals with POLR2A Ser2 phosphorylation (CDK9). As to the kind of experiment: POLR2A Ser2 phosphorylation imaging assay in MCF-7 cells. The conditions noted are these: Homo sapiens, MCF7, 2 h, MCF-7 cells, 2 hours; read-out: POLR2A Ser2 phosphorylation IC50. It counts as cell-based. The procedure:
Compounds were tested to assess their effect on CDK9 activity in a cellular context. […] During the cell cycle, CDK9 is a component of a multiprotein complex that phosphorylates POLR2A Ser2 which results in transcription elongation.
[…] were fixed by addition of 40 μL/well of 8% paraformaldehyde and incubated for 10 minutes at room temperature. The plates were washed three times with 50 μL/well PBS using a Biotek EL406 plate washer and then permeabilized for 10 minutes at room temperature in 0.3% Triton X100 in PBS. After washing as before, the plates were blocked using 30 μL/well of 2% BSA (w/v) in PBS-T for over 30 minutes at room temperature. […] After washing in PBS as before, leaving each well in 40 μL of PBS, the plates were sealed and imaged on a Cell Insight imaging system (Thermo) with a 10× objective and 2 fields of view per well. POLR2A Ser2levels were normalized to controls and the IC50 values of test compounds determined using Genedata Screener software.

The next data set has as its target CDK4:CCND1 (Homo sapiens (Human), UniProt P11802). As to the kind of experiment: NanoBRET assay in MCF-7 cells, CDK4. The conditions noted are these: NanoBRET, transfected MCF-7 cells, 2 hours; n = 1 or average; read-out: CDK4 IC50. It counts as cell-based. The method, then: (§3) Compounds were tested in breast cancer cell line MCF-7 to assess inhibition of CDK1, CDK2, and CDK4 activity. MCF-7 cells transiently transfected with CDK1:CCNB1, CDK2:CCNE1, or CDK4:CCND1 were harvested at a density of 1E5 cells/mL in complete media, seeded 20 μL/well into 384-well Greiner 784080 plates using a Multidrop Combi, and incubated overnight at 37° C. and 5% CO2. The next day media were evacuated from the wells using the Bluewasher centrifugal plate washer (Bluecatbio) and 10 μL/well phenol red free OptiMEM was then added using a Multidrop Combi. […] Immediately after compound addition, a Tecan HP300 dispensor was used to dispense the relevant NanoBRET™ tracer to the CDK1 wells (12.5 nl, 400 μM, NanoBRET™ TE Tracer K-9), the CDK2 wells (12.5 nl, 200 μM, NanoBRET™ TE Tracer K-9), and the CDK4 wells (8 nl, 100 μM, NanoBRET™ TE Tracer K-7) and the plates were incubated for 2 hours at 37° C. and 5% CO2. The plates were allowed to cool for 10 minutes at room temperature and 5 μL/well of TE Nano-Glo®Substrate/Inhibitor at 2.4 μM and 1:500 respectively (N2162 Promega) was added. The plates were incubated in subdued lighting for 10 minutes and then read on a Pherastar FS plate reader (BMG Technologies) using a NanoBRET™ filter module (460±80 nm/610 nm-LP). The ratio values were normalized to controls and the IC50 values of test compounds determined using Genedata Screener software.

Data set [4] in a line: Aqueous thermodynamic solubility, shake-flask. The data set is classed as physicochemical. The conditions noted are these: aqueous phosphate buffer, 25 °C, pH 7.4, aqueous buffer, thermodynamic from solid, phosphate buffer 0.1 M, pH 7.4, 24 hours. The procedure: The DMSO was evaporated and the dried compounds were equilibrated in glass vials in aqueous phosphate buffer (0.1 M, pH 7.4) for 24 hours at 25° C. under constant stirring. The portion with the dissolved compound was then separated from the remainder through a double centrifugation with a tip wash in between to ensure that no residues of the dried compound were interfering. The solutions were diluted with purified water before quantification using UPLC/MS/MS.

The next data set addresses CDK1:CCNB1 (Homo sapiens (Human), UniProt P06493). Put plainly: NanoBRET assay in MCF-7 cells, CDK1. The note with it: NanoBRET, transfected MCF-7 cells, 2 hours; n = 1 or average; read-out: CDK1 IC50. The data set is classed as cell-based. The procedure:
as §3

The next data set relates to OVCAR3 cells. Put plainly: Cellular proliferation EdU assay, OVCAR3. It counts as cell-based, human. The note with it: Homo sapiens, OVCAR-3, 48 h, EdU assay, two days; read-out: OVCAR3 IC50. The procedure:
as §1, §2

In brackets after ≈: the same amount, converted by molar mass.

Chain of CDK4:CCND1 (P11802 whole entry): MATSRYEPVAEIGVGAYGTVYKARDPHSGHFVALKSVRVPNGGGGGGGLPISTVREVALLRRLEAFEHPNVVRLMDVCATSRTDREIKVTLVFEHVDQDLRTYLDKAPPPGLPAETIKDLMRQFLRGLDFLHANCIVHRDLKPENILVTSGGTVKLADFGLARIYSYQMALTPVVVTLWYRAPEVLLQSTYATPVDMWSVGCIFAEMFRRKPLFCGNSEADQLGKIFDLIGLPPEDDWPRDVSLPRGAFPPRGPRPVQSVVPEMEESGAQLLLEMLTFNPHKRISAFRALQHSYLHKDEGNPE
Chain of CDK4:CCND1 (P24385 whole entry partner): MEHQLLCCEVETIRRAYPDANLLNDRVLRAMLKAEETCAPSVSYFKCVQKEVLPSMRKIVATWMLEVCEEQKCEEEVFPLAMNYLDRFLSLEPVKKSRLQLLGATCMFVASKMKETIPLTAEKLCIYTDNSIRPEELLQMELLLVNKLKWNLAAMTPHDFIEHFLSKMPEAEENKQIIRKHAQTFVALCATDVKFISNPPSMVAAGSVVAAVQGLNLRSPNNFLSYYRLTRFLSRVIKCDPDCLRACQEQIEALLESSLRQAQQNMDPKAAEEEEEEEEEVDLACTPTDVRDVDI
Chain of CDK1:CCNB1 (P06493 whole entry): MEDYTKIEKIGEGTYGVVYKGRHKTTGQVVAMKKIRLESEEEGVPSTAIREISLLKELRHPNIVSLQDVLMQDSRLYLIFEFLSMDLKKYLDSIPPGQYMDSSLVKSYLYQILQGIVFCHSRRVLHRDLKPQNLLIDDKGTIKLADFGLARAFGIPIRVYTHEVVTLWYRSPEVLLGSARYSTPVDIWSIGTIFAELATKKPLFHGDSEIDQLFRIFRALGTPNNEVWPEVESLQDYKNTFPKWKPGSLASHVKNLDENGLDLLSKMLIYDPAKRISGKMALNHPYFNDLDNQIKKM
Chain of CDK1:CCNB1 (P14635 whole entry partner): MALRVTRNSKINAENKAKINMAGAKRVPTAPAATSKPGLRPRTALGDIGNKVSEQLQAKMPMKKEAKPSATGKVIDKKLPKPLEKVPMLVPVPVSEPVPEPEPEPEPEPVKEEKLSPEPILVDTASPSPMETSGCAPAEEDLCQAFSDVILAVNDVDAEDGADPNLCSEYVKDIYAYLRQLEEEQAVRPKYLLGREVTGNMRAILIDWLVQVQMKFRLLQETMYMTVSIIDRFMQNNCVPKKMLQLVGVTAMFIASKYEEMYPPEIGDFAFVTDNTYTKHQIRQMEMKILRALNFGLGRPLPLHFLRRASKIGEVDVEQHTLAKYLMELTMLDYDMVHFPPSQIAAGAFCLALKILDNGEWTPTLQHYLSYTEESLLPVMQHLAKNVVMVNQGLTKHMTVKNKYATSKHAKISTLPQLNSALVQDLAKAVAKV

On to `CCn1cnc2c(N[C@H]3CCN(S(=O)(=O)NC)C3)nc(N[C@@H](CC(F)(F)F)[C@@H](C)O)nc21` (relative stereo) [Example 21, (S)-3-((9-ethyl-2-(((3S*,4R*)-1,1,1-trifluoro-4-hydroxypentan-3-yl)-amino)-9H-purin-6-yl)amino)-N-methylpyrrolidine-1-sulfonamide], for which the IC50 in [1] (MCF7, 2 hours) was 0.326 µM; at CDK2:CCNE1 it was 0.049 µM; in the data set on MCF-7 cells, 1.45 µM; in data set [3], more than 30 µM; at CDK4:CCND1, more than 29.7 µM; on CDK1:CCNB1, 3.83 µM. Besides, the IC50 in the data set with OVCAR3 cells was 0.578 µM. In addition, the “HLM CLint” value in [2] came out at 34.1 µL/min/mg. In addition, in data set [4], the solubility at 24 h was 606 µM (≈ 291 µg/mL).
For `CCNS(=O)(=O)N1C[C@@H](F)[C@H](Nc2nc(N[C@@H](CO)C3CC3)nc3c2ncn3C)C1` (relative stereo) [Example 26, (3R*,4R*)-3-((2-(((R)-1-cyclopropyl-2-hydroxyethyl)amino)-9-methyl-9H-purin-6-yl)amino)-N-ethyl-4-fluoropyrrolidine-1-sulfonamide], the IC50 in [1] (MCF7, 2 h) came to 0.435 µM; on CDK2:CCNE1, 0.039 µM; in the data set with MCF-7 cells, 0.96 µM; in data set [3], 11.4 µM; at CDK4:CCND1 it was 8.1 µM; at CDK1:CCNB1, 0.651 µM. The IC50 in the data set with OVCAR3 cells was 0.496 µM. The “HLM CLint” value in data set [2] is 15.2 µL/min/mg. The compound also returned a solubility at 24 h in data set [4] of 101 µM (≈ 44.7 µg/mL).
Consider `CC[C@H](Nc1nc(N[C@@H]2CN(S(=O)(=O)NC)C[C@H]2F)c2ncn(CC)c2n1)[C@@H](C)O` (relative stereo) [Example 52, (3R*,4R*)-3-((9-ethyl-2-(((2R,3S)-2-hydroxypentan-3-yl)amino)-9H-purin-6-yl)amino)-4-fluoro-N-methylpyrrolidine-1-sulfonamide], for which the IC50 in [1] (MCF7, 2 h) is 0.151 µM; against CDK2:CCNE1, 0.021 µM; with MCF-7 cells it was 1.02 µM; in data set [3], 11.1 µM; on CDK4:CCND1, 16.8 µM; at CDK1:CCNB1 it was 1.2 µM. The IC50 in the data set on OVCAR3 cells was found to be 0.252 µM. Also, the “HLM CLint” value in data set [2] came out at 21.1 µL/min/mg. Moreover, the solubility at 24 h in [4] was 300 µM (≈ 133 µg/mL).
On to `CC[C@H](Nc1nc(N[C@@H]2CN(S(=O)(=O)c3ncc[nH]3)C[C@H]2F)c2ncn(C)c2n1)[C@@H](C)O` (relative stereo) [Example 56, (2R,3S)-3-((6-(((3R*,4R*)-1-((1H-imidazol-2-yl)sulfonyl)-4-fluoropyrrolidin-3-yl)amino)-9-methyl-9H-purin-2-yl)amino)pentan-2-ol], for which the IC50 is 0.299 µM in data set [1] (MCF7, 2 h); 0.069 µM on CDK2:CCNE1; 1.18 µM in the data set on MCF-7 cells; 23.9 µM in [3]; 22 µM on CDK4:CCND1; 1.5 µM at CDK1:CCNB1. Further, the IC50 in the data set with OVCAR3 cells amounted to 0.519 µM. Besides, the “HLM CLint” value in data set [2] was 39.8 µL/min/mg. Besides, the solubility at 24 h in [4] is more than 1000 µM.
Consider `C[C@H](Nc1nc(N[C@@H]2CN(S(=O)(=O)c3ncc[nH]3)C[C@H]2F)c2ncn(C(F)F)c2n1)[C@@H](O)C(F)(F)F` (relative stereo) [Example 57, (2R,3S)-3-((6-(((3R*,4R*)-1-((1H-imidazol-2-yl)sulfonyl)-4-fluoropyrrolidin-3-yl)amino)-9-(difluoromethyl)-9H-purin-2-yl)amino)-1,1,1-trifluorobutan-2-ol], for which the IC50 in data set [1] (MCF7, 2 h) is 0.055 µM; on CDK2:CCNE1, 0.011 µM; in the data set on MCF-7 cells, 0.2 µM; in [3], 4.4 µM; on CDK4:CCND1 it was 1.5 µM; on CDK1:CCNB1 it was 0.186 µM. For the same compound, in the data set on OVCAR3 cells, the IC50 came to 0.155 µM. Besides, the “HLM CLint” value in [2] was found to be 33.5 µL/min/mg. In data set [4], this compound returned a solubility at 24 h of 884 µM (≈ 480 µg/mL).
On to `CCNS(=O)(=O)N1CC[C@H](Nc2nc(N[C@@H](CO)CC3CC3)nc3c2ncn3CC)C1` (relative stereo) [Example 58, (S)-3-((2-(((R*)-1-cyclopropyl-3-hydroxypropan-2-yl)amino)-9-ethyl-9H-purin-6-yl)amino)-N-ethylpyrrolidine-1-sulfonamide], for which the IC50 in data set [1] (MCF7, 2 h) was 0.137 µM; against CDK2:CCNE1, 0.017 µM; in the data set with MCF-7 cells, 0.874 µM; in data set [3] it was more than 30 µM; at CDK4:CCND1 it was 1.7 µM; at CDK1:CCNB1 it was 0.671 µM. Moreover, the IC50 with OVCAR3 cells is 0.431 µM. The “HLM CLint” value in [2] was determined as 202 µL/min/mg. This compound came in with a solubility at 24 h in data set [4] of 51.9 µM (≈ 23.5 µg/mL).
